Results reported in ChEMBL document CHEMBL3507680, “University of Dundee, Gates Library screen for HepG2 cell viability”.

Experiment: Human HepG2 cell viability assay in 384 well format
Type: toxicity, cell-based
Design: dose 125 nL, time 70.5 hour; cytotoxicity at 70.5 h: concentration not given beside the values
Conditions: HepG2 cells, read-out: Inhibition

Row | Structure (SMILES) | cytotoxicity at 70.5 h [%]
1 | CCOC(=O)N1CCN(C(=O)c2cc(-c3ccc(Cl)cc3Cl)on2)CC1 | 0.435
2 | Cc1nn(C)c2c(N3CCN(C(=O)C4CC4)CC3)ncnc12 | 16.2
3 | CCC(=O)N1CCN(c2ncnc3c(C)nn(C)c23)CC1 | 15.4
4 | Cc1nc(N2CCN(C(=O)c3ccco3)CC2)c2c(n1)c(C)nn2C | -6.71
5 | Cc1nc(N2CCN(C(=O)C3CCCC3)CC2)c2c(n1)c(C)nn2C | -0.908
6 | Cc1nc(N2CCN(C(=O)c3ccncc3)CC2)c2c(n1)c(C)nn2C | 19.4
7 | CC(NC(=O)c1ccc(F)cc1F)c1cnn(C)c1 (configuration not stated) | -4.48
8 | Cc1nn(Cn2ccc(C(=O)N3CCCC(C)C3)n2)c(C)c1Cl (configuration not stated) | -5.65
9 | CCN1CCCC1(C)c1nc(C)cc(N)n1 (configuration not stated) | -10.7
10 | CCC(=O)N1CCC(Cc2cnc(Nc3cnccn3)cn2)CC1 | -11.1
11 | Cc1cncnc1C1CCN(CCO)CC1 | -7.32
12 | CCc1nnc(Nc2cc(C)nc(C3CCN(c4ncccn4)C3)n2)s1 (configuration not stated) | 3.49
13 | COc1ccccc1C1CNCCN1C(C)=O (configuration not stated) | -15.3
14 | CN1CCCC1c1nccnc1-c1ccc(C(=O)O)cc1 (configuration not stated) | 11
15 | COc1ccccc1C1Cn2c(C)cnc2CN1Cc1c[nH]nc1C (configuration not stated) | -12.2
16 | COc1cccc(S(=O)(=O)N2C[C@@H](O)[C@H](N(C)C)C2)c1 | -15.9
17 | O=C(CN1CCNC1=O)NCc1ccc2sccc2c1 | -9.13
18 | CCN(CC)S(=O)(=O)N1C[C@@H](c2ccccc2)[C@H]2[C@H]1CCCCCN2C | -1.32
19 | Cn1nc(-c2ccc(F)cc2)cc1C(=O)NCCn1ccnc1 | -10.2
20 | COc1ccc(-c2cc(C(=O)NCCCn3ccnc3C)n(C)n2)cc1 | -4.65
21 | Cc1noc(-c2c[nH]nc2C2CCCN2C(=O)c2ccccc2)c1C (configuration not stated) | -4.46
22 | Cn1nccc1CN1CCCC(COc2ccccc2F)C1 (configuration not stated) | -4.6
23 | Cc1cncc(C2CCCN2CC(N)=O)n1 (configuration not stated) | -2.96
24 | CN(C)c1cccc(C2CCN(C3COCC3O)CC2)n1 (configuration not stated) | -4.45

Row | Structure (SMILES) | cytotoxicity at 70.5 h [%]
25 | Cc1nccc(N2CCCC2CCNS(C)(=O)=O)n1 (configuration not stated) | -2.97
26 | O=C(c1cc2c(s1)CCC2)N1CCC(c2cnccn2)CC1 | -6.29
27 | NCc1cccc(-c2cccnc2C(=O)NCCN2CCOCC2)c1 | -9.72
28 | O=C(c1ccc(-n2cccn2)nc1)N1CCCC(c2cnccn2)C1 (configuration not stated) | -4.09
29 | COCCNc1nnc(-c2ccc(C)nc2)s1 | 1.91
30 | O=C(O)c1cncc(Cc2ccccc2F)c1 | -6.6
31 | O=C(O)c1cncc(Cc2ccc(F)cc2)c1 | -7.6
32 | O=C(O)c1ccc(Cc2cccc(F)c2)nc1 | -3.84
33 | O=C(O)c1cncc(Cc2cccc(F)c2)c1 | -7.96
34 | CNC(=O)C1(C)CCCN1Cc1cnn(C)c1C (configuration not stated) | -8.11
35 | CNC(=O)c1cccc(CC2COCCN(Cc3ccsc3)C2)n1 (configuration not stated) | -6.49
36 | Fc1cccc(CN2CCC(c3noc(-c4cnccn4)n3)CC2)c1F | -0.815
37 | CC(=O)N1Cc2ccccc2OC2(CCN(C(=O)C3CC3)CC2)C1 | 25.4
38 | Cn1c(C(=O)NC(Cc2ccsc2)c2cccnc2)cc(=O)n(C)c1=O (configuration not stated) | -0.464
39 | Cc1csc(C(Cc2ccsc2)NC(=O)c2cc(=O)n(C)c(=O)n2C)n1 (configuration not stated) | -4.94
40 | COc1cc2cc3c(nc2cc1OC)OCCN(CC1CC1)C3 | -2.88
41 | COc1cc2cc3c(nc2cc1OC)OCCN(Cc1ccco1)C3 | 8.51
42 | COc1ccc(-c2cc3cccn(CC(=O)N4CCOCC4)c-3n2)cc1 | 10.5
43 | COc1cccc(CNCc2cccnc2)c1 | 9.83
44 | Cc1cccc(N2CCCC2c2nc(C)ncc2CN(C)C)n1 (configuration not stated) | -4.92
45 | Cc1ccc(N(C)[C@@H]2CC[C@@H]3CN(C(=O)CC4CCOCC4)C[C@@H]32)nn1 | -7.61
46 | NCc1cccc(-c2cccnc2C(=O)NCCN2CCCC2)c1 | -8.26
47 | COCCN1CCCC(Cc2cnc(-c3c(C)nn(C)c3C)cn2)C1 (configuration not stated) | -5.51
48 | COCCN1CCCC(c2ncc(C(=O)N3CCOCC3)c(C)n2)C1 (configuration not stated) | 1.77

Row | Structure (SMILES) | cytotoxicity at 70.5 h [%]
49 | CN1CCN(CC2(O)CCCN(C(=O)Cc3cccc(O)c3)CC2)CC1 (configuration not stated) | -12.4
50 | COc1cccc(-c2cc(C3CCCNC3)ccn2)c1 (configuration not stated) | 3.19
51 | CC(=O)N1CCC(C)(c2cc[nH]n2)CC1 | -3.17
52 | Cc1ccccc1CC(=O)N1C[C@@H](O)[C@H](N2CCOCC2)C1 | 3.85
53 | Cc1ccccc1CC(=O)N1C[C@@H](O)[C@H](N2CCN(C)CC2)C1 | 0.191
54 | NC(=O)c1cnc(NCC(=O)NCc2ccccc2)c(Cl)c1 | -4.1
55 | Cc1noc(CCNC(=O)c2ccc(N(C)C)c(F)c2)n1 | -3.5
56 | Cc1csc(CCNC(=O)c2ccc(N(C)C)c(F)c2)n1 | 13.6
57 | OCCCN1CCCC1c1cccc(Br)c1 (configuration not stated) | -4.27
58 | N#Cc1ccc(CS(=O)(=O)NC(=O)c2ccc(C#N)cc2)cc1 | -14.8
59 | N#Cc1ccc(S(=O)(=O)NC(=O)c2ccc3c(c2)COC3)cc1 | -4.81
60 | CC(C)c1nnc(NC(=O)NCc2cccnc2NCCN(C)C)s1 | 4.5
61 | NC(=O)c1cnc(NC(=O)CCc2ccco2)c(Cl)c1 | -2.14
62 | CC(NS(=O)(=O)CCCC#N)c1cccc(-n2cccn2)c1 (configuration not stated) | -10.5
63 | CCc1ocnc1C(=O)N1CCN(c2nncc3ccccc23)CC1 | -19.4
64 | O=C(C1CCOCC1)N(CCc1ccccc1)C1CCOC1 (configuration not stated) | 8.62
65 | Cc1n[nH]c(-c2ccc(NC(=O)C(C)N3CCN(C)CC3)cc2)n1 (configuration not stated) | 2.06
66 | Cc1nnc(NCc2ccc(SC(F)F)cc2)o1 | 14.2
67 | Cn1cc(C(NCCc2ccccn2)c2cccc(F)c2)cn1 (configuration not stated) | -5.84
68 | CSc1cc2c(cc1NC(=O)N(C)Cc1ccncc1)OCCO2 | -2.5
69 | Cc1occc1C(=O)NCC(=O)N1CCCC(c2ccccc2)CC1 (configuration not stated) | -3.67
70 | COc1cc(C#N)ccc1OCCN1CCC(n2ccnc2)CC1 | -7.5
71 | Cc1nnc2n1CC(CNCc1nc(-c3ccsc3)no1)CC2 (configuration not stated) | -14.6
72 | O=C(CN1CCCc2sccc2C1=O)NC1CCc2nccn2C1 (configuration not stated) | 23.3

Row | Structure (SMILES) | cytotoxicity at 70.5 h [%]
73 | CN(C)c1ccc(NC(=O)CN2CCS(=O)(=O)CC2)cn1 | -0.4
74 | CC(C)Oc1cccc(CC(=O)NC2CCN(CC(N)=O)CC2)c1 | -10.1
75 | Cc1nc2cc(=O)[nH]n2c(C)c1CC(=O)NC(C)C | -7.48
76 | Cc1cc(F)ccc1S(=O)(=O)NCc1[nH]ncc1Br | -7.73
77 | CCc1nnc2n1CC(CNCc1nc(-c3ccsc3)no1)CC2 (configuration not stated) | -4.57
78 | COc1cccc(COC(C)C(=O)NC2CCN(CC(N)=O)CC2)c1 (configuration not stated) | -7.36
79 | Cc1ccc(S(=O)(=O)NCc2[nH]ncc2Br)cc1F | -1.86
80 | Cc1ccccc1C(C)NC(=O)Cc1c(C)nc2cc(=O)[nH]n2c1C (configuration not stated) | -10.1
81 | Brc1cnc(NCCCOCC2CCOC2)nc1 (configuration not stated) | -5.54
82 | Brc1cnc(NCCCOC2CCOCC2)nc1 | -6.88
83 | N#Cc1cn(C2CC2)c(=O)n(Cc2cc(-c3cccs3)on2)c1=O | -6.97
84 | CN1CCCN(S(=O)(=O)c2cnn(C)c2)c2cc(Cl)ccc21 | -3.72
85 | Cc1nnc2n1CC(CNCc1nc(-c3cccs3)no1)CC2 (configuration not stated) | 18.6
86 | CN1CCCN(S(=O)(=O)c2cn(C)cn2)c2cc(Cl)ccc21 | -0.299
87 | CN1CCCN(S(=O)(=O)c2cn(C)cn2)c2cc(F)ccc21 | 4.76
88 | CN(C)CC(C)(O)CNC(=O)Nc1sc2ccccc2c1Cl (configuration not stated) | 8.3
89 | CCOCC(O)CNc1cncc(Br)c1 (configuration not stated) | -1.77
90 | CS(=O)(=O)NC1CCN(C(=O)CCC2CCCO2)CC1 (configuration not stated) | -0.0133
91 | Brc1ccc(NCCCOC2CCOCC2)nc1 | -1.01
92 | CCOc1ccc(N(C)Cc2nc(C)c(C)o2)cc1 | 15.3
93 | CCOc1ccc(N(C)Cc2nnc(C3CC3)o2)cc1 | -2.24
94 | CCN(CCNS(=O)(=O)C1CCOCC1)C(=O)OC(C)(C)C | -5.67
95 | CN(Cc1ccc(C#N)cc1)C(=O)c1ccn(C)c(=O)c1 | -9.77
96 | Cc1cc(C(=O)NC(C)Cc2ccccc2Cl)n(C)n1 (configuration not stated) | -7.08

Row | Structure (SMILES) | cytotoxicity at 70.5 h [%]
97 | CN(C)CCN(Cc1ccc(C#N)cc1)C(=O)c1ccn(C)c(=O)c1 | 24.8
98 | COCCOc1cccc(CNCc2ccc(-n3cncn3)nc2)c1 | -4.01
99 | CC(C)(C)OC(=O)N(CCNS(=O)(=O)N1CCOCC1)C1CC1 | -3.4
100 | COc1c(C)cnc(CN2CCn3c(C)nnc3C2)c1C | -3.41
101 | COC(=O)CNC(=O)c1ccn(-c2ccc(Cl)c(Cl)c2)n1 | -2.3
102 | CNC(=O)COC(=O)c1ccn(-c2ccc(Cl)c(Cl)c2)n1 | 24.2
103 | COc1c(C)cnc(CN2CCn3c(nnc3C(C)C)C2)c1C | -1.82
104 | CS(=O)(=O)NC(=O)c1ccn(-c2ccccc2Cl)n1 | -1.86
105 | Cc1ncc(CNC(=O)NCC(C)Oc2ccccc2F)s1 (configuration not stated) | -3.22
106 | Cc1ncc(CNC(=O)NCc2c(F)cccc2OC(F)F)s1 | -0.321
107 | O=C(Nc1ccc(-c2csnn2)cc1)NC(CCO)C1CC1 (configuration not stated) | 18
108 | COc1ccc(-c2cc(C3CCCNC3)ccn2)cc1 (configuration not stated) | -12.4
109 | O=C(C1CCCC1)N1C[C@@H](c2ccsc2)[C@@H]2CN(C3CCCC3)CC[C@@H]21 | -8.32
110 | Oc1cc(C2CCNCC2)nc(-c2ccsc2)n1 | -4.35
111 | CC(C)(C)C(=O)N1C[C@H](c2ccsc2)[C@H]2CN(C3CCCC3)CC[C@H]21 | -4.45
112 | CN(C)Cc1cc(C2CCCCN2S(=O)(=O)Cc2ccccc2)nn1C (configuration not stated) | -14.1
113 | O=C(NC1CCCC1)c1cc(C2CCCNC2)n[nH]1 (configuration not stated) | -3.17
114 | O=C(NC1CCCC1)C1(Cc2cc(C3CCOC3)no2)CCNCC1 (configuration not stated) | -5
115 | Cc1ccc(C2(CN3CCN(Cc4cncn4C)CC3)CC2)cc1 | 12.6
116 | Cc1cc(Nc2ccccn2)nc(C2CCCN(CCO)C2)n1 (configuration not stated) | -8.92
117 | CN1CCCC(c2cncc(C(=O)NCc3ccccc3Cl)n2)C1 (configuration not stated) | -7.68
